Counter-ions that a name gives are not always drawn. Like-named read-outs stand apart in the source and are kept apart here.
Tests used:
C57BL/6 mice = assay: MOG35-55 mouse EAE model of multiple sclerosis; format: in vivo; conditions: oral 90 mg-eq MHF/kg twice daily, Days 3 to 29
Experimental: (§1) C57BL/6 mice (6 females) were injected subcutaneously with MOG35-55 peptide in CFA with Mycobacterium tuberculosis. Pertussis toxin ([…]) was injected IV on Day 0 and Day 2 post-immunization. Animals received oral XP23829 or DMF (90 mg-eq MHF/kg twice daily) or vehicle on Days 3 to 29. Daily EAE clinical disease scores (5 point scale) were recorded. End of study MHF blood levels were determined by LC/MS/MS.

rat stomach = assay: Gastrointestinal irritation evaluation in rats (Annamalai-Ma gastrointestinal irritation rat model); format: in vivo; conditions: average stomach score (0-5 scale, Table 1) from at least 5 rats; oral, once per day for 4 consecutive days
Experimental: In order to assess gastrointestinal irritation using this model, rats are treated orally with either vehicle or the MHF prodrug to be tested (n=10 per group) at 180 mg-equivalents MHF/kg of animal body weight, dosed once per day for 4 days, followed by necropsy and gastrointestinal evaluation at 24 hrs after the final dose. Evans Blue dye is injected IV (tail vein) to visually emphasize any lesions in the gastrointestinal tissue.
Rats were dosed once per day for 4 consecutive days with 180 mg-equivalents MHF/kg body weight per day of a number of MHF prodrugs. The animals were fasted overnight prior to necropsy. On Day 5, to help visualize lesions, 1 mL of 1% Evan's blue in saline was injected into the tail vein 30 minutes prior to euthanasia. All animals were euthanized by inhalation of carbon dioxide. A partial necropsy, limited to the abdominal cavities, was performed. The stomach and small intestine were removed. Residual material was washed away, using an irrigation syringe filled with saline. The stomach was cut along the larger curvature and washed gently with normal saline, and was examined for any lesions. The stomachs were scored in accordance with the scoring system outlined in Table 1. The stomach scores from at least 5 rats were used to calculate an average gastrointestinal irritation score, which scores are reported in Table 2.

Balb/c mice = assay: Imiquimod (IMQ) mouse model of psoriasis; format: in vivo; conditions: Day -5 to Day 5
Excerpt: Balb/c mice (10 males/group) received daily topical IMQ (5% cream) on shaved back and right ear for 5 days. […] Erythema score was the primary outcome measure.

monkeys = assay: 4-week GLP toxicity study in monkeys, gastrointestinal toxicity by gross necropsy and histopathology
Experimental: (§3) (N,N-diethylcarbamoyl)methyl methyl (2E)but-2-ene-1,4-dioate was administered to CD rats (10/sex/dose) at 0 (vehicle), 150, 250, or 500 mg/kg/day and monkeys (3/sex/group) at 0 (vehicle), 25, 75, or 200 mg/kg/day for 4 weeks in GLP toxicity studies. In parallel studies, DMF was administered at doses intended to deliver similar MHF exposures: in rats (10/sex/dose) at 90, 150, and 300 mg/kg/day and monkeys (3/sex/group) at 0 (vehicle), 40, 90, or 250 mg/kg/day for 4 weeks. Gastrointestinal toxicity was assessed by gross necropsy and histopathology.

CD rats [1] = conditions: rat, in vivo, 300 mg/kg/day
Experimental: as §3

CD rats [2] = assay: 4-week GLP toxicity study in rats, gastrointestinal toxicity by gross necropsy and histopathology; conditions: 500 mg/kg/day for 4 weeks
Experimental: as §3

[3] = Toxicokinetics at steady state in rats; format: in vivo, rat
Experimental: (§2) Gastrointestinal toxicity was assessed by gross necropsy and histopathology. Toxicokinetics were assessed at steady state in parallel cohorts.

[4] = MHF and intact prodrug blood levels in the mouse efficacy studies (LC/MS/MS); format: in vivo; conditions: oral dosing
Experimental: as §1

[5] = Toxicokinetics at steady state in monkeys; format: in vivo, monkey
Experimental: as §2

[6] = test system: GST activity in the forestomach tissue of rats; assay: Glutathione S transferase (GST) activity of the cytosolic extracts of rat forestomach after oral dosing; format: in vivo; conditions: rat forestomach cytosol; oral gavage 180 mg-equivalents of MMF/kg once per day for 14 days; relative to DMF
Experimental: wherein SARprodrug is the ratio of (i) the GST activity in the forestomach tissue of rats treated with the MMF prodrug (GSTAprodrug) to (ii) the GST activity in the forestomach tissue of rats treated with a non-irritating control solution comprised of 0.5 wt % methylcellulose and 0.1 wt % Tween 80 in 10 mM sodium acetate buffer, pH 4.5 (GSTAcontrol); and SARDMF is the ratio of (i) the GST activity in the forestomach tissue of rats treated with DMF (GSTADMF) to (ii) the GST activity in the forestomach tissue of rats treated with a non-irritating control solution comprised of 0.5 wt % methylcellulose and 0.1 wt % Tween 80 in 10 mM sodium acetate buffer, pH 4.5 (GSTAcontrol). The SARprodrug is proportional to the amount of GST isozymes induced by the MMF prodrug treatment while the SARDMF is proportional to the amount of GST isozymes induced by DMF prodrug treatment. A detailed description of how to determine the GSTArel is provided in Example 1 herein. […]
Total cytosolic GST activity is determined by measuring the conjugation of 1-chloro-2,4-dinitrobenzene (CDNB) with reduced glutathione. […] The formation of the conjugate is monitored spectrophotometrically by measuring the rate of increase in absorbance at 340 nm over a period of 3 minutes. The rate of increase is measured in μmole/min production of GST-CDNB and is directly proportional to the GST activity in the sample. […]

Compound | GI Irritation Score (180 mg-eq of MHF/kg) (rat stomach) | melting point [°C] | other results
COC(=O)/C=C/C(=O)OC [Dimethyl Fumarate] | 4.6 | – | reduction in EAE clinical score (Day 29 and overall AUC) compared to vehicle (C57BL/6 mice): not statistically significant; effect versus control in IMQ model (erythema score primary outcome) (Balb/c mice; oral 45 or 90 mg-eq MMF/kg twice daily (either dose)): not significant; gastric mucosal hyperplasia (histopathology) compared to (N,N-diethylcarbamoyl)methyl methyl (2E)but-2-ene-1,4-dioate (monkeys; monkeys, 4 weeks): greater gastric mucosal hyperplasia; gastrointestinal irritation after 4 weeks of dosing (monkeys; monkeys, 40, 90 or 250 mg/kg/day): dose dependent gastrointestinal irritation; mortality (monkeys; monkeys, high dose, 4 weeks): One high dose DMF monkey died from gastric ulceration; glandular stomach findings (CD rats [1]): ulceration, necrosis and loss of mucosa of glandular stomach
COC(=O)/C=C/C(=O)OCC(=O)N1CCCC1 [Methyl 2-oxo-2-pyrrolidinylethyl 2(E)but-2-ene-1,4-dioate] | 3.0 | 102.1 | –
COC(=O)/C=C/C(=O)OCCCCN1CCOCC1 [Methyl 4-morpholin-4-ylbutyl (2E)but-2-ene-1,4-dioate] | 0.6 | – | –
COC(=O)/C=C/C(=O)OCC(=O)N(C)C1CC1 [(N-cyclopropyl-N-methylcarbamoyl)methyl methyl 2(E)but-2-ene-1,4-dioate] | 2.6 | 93.6 | –
COC(=O)/C=C/C(=O)OCCCN1CCOCC1 [Methyl 3-morpholin-4-ylpropyl (2E)but-2-ene-1,4-dioate] | 0.0 | – | –
CCN(C(=O)COC(=O)/C=C/C(=O)OC)C1CC1 [(N-cyclopropyl-N-ethylcarbamoyl)methyl methyl 2(E)but-2-ene-1,4-dioate] | 1.0 | 92.1 | –
CCN(CC)C(=O)COC(=O)/C=C/C(=O)OC [(N,N-Diethylcarbamoyl)methyl methyl (2E)but-2-ene-1,4-dioate] | 1.4 | – | glandular stomach findings (CD rats [2]): no adverse effects on glandular stomach; reduction in EAE clinical score (Day 29 and overall AUC) compared to vehicle (C57BL/6 mice): significant reduction; conversion to MHF after absorption [3]: converted rapidly to MHF; prodrug in the systemic circulation [3]: not detected; MHF exposure compared with DMF at 300 mg/kg/day ([3]; 500 mg/kg/day): identical; intact prodrug in the systemic blood [4]: not detected; effect versus control in IMQ model (erythema score primary outcome) (Balb/c mice; oral 90 mg-eq/kg twice daily): significant; conversion to MHF after absorption [5]: converted rapidly to MHF; prodrug in the systemic circulation [5]: not detected; relative GST enzyme activity (GSTArel) [6]: less than 80%
COC(=O)/C=C/C(=O)OCC(=O)N(C)C [(N,N-Dimethylcarbamoyl)methyl methyl (2E)but-2-ene-1,4-dioate] | 2.4 | – | –
COC(=O)/C=C/C(=O)OCCN1CCOCC1 [Methyl 2-morpholin-4-ylethyl (2E)but-2-ene-1,4-dioate] | 0.0 | – | –
COC(=O)/C=C/C(=O)OCCCCCCN1CCOCC1 [Methyl 6-morpholin-4-ylhexyl (2E)but-2-ene-1,4-dioate] | 0.0 | – | –
COC(=O)/C=C/C(=O)OCC(=O)N1CCOCC1 [Methyl 2-morpholin-4-yl-2-oxoethyl (2E)but-2-ene-1,4-dioate] | 2.9 | 124 to 126 | –
COC(=O)/C=C/C(=O)OCCCCCN1CCOCC1 [Methyl 5-morpholin-4-ylpentyl (2E)but-2-ene-1,4-dioate] | 0.0 | – | –

Reference: patent publication US20150252013A1, “TREATMENT OF MULTIPLE SCLEROSIS AND PSORIASIS USING PRODRUGS OF METHYL HYDROGEN FUMARATE” (XenoPort, Inc., priority 2012, published 2015)
